According to PubChem BioAssay AID248 (DTP/NCI, 2004):
Values joined by “and” are separate entries in the source; they are usually repeats but may differ in a detail not shown here. Equal entries are not always repeated. Inconclusive results and toxic doses are left out.

Tested on: L1210 leukemia ip in BDF1 mice, survival T/C
Assay: NCI In Vivo Anticancer Drug Screen. Data for tumor model L1210 Leukemia (intraperitoneal) in B6D2F1 (BDF1) mice
Conditions: endpoint: mean survival time, higher = longer survival
Method in brief: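 Transplantable tumor model; survival measured in treated vs vehicle control mice. Value = treated/control.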

[1] = dose: 6.25 mg/kg/injection, schedule: Q01DX009 (ip), vehicle: saline
[2] = dose: 12.5 mg/kg/injection, schedule: Q01DX009 (ip), vehicle: saline
[3] = dose: 100.0 mg/kg/injection, schedule: Q01DX009 (ip), vehicle: saline sonified
[4] = dose: 100.0 mg/kg/injection, schedule: Q04DX003 (ip), vehicle: saline sonified
[5] = dose: 200.0 mg/kg/injection, schedule: Q01DX009 (ip), vehicle: saline sonified
[6] = dose: 200.0 mg/kg/injection, schedule: Q04DX003 (ip), vehicle: saline sonified
[7] = dose: 400.0 mg/kg/injection, schedule: Q01DX009 (ip), vehicle: saline sonified
[8] = dose: 400.0 mg/kg/injection, schedule: Q04DX003 (ip), vehicle: saline sonified
[9] = dose: 100.0 mg/kg/injection, schedule: Q01DX009 (ip), vehicle: saline with Tween-80
[10] = dose: 100.0 mg/kg/injection, schedule: Q04DX003 (ip), vehicle: saline with Tween-80
[11] = dose: 200.0 mg/kg/injection, schedule: Q01DX009 (ip), vehicle: saline with Tween-80
[12] = dose: 200.0 mg/kg/injection, schedule: Q04DX003 (ip), vehicle: saline with Tween-80
[13] = dose: 400.0 mg/kg/injection, schedule: Q01DX009 (ip), vehicle: saline with Tween-80
[14] = dose: 400.0 mg/kg/injection, schedule: Q04DX003 (ip), vehicle: saline with Tween-80
[15] = dose: 100.0 mg/kg/injection, schedule: Q04DX002 (ip), vehicle: Klucel (hydroxypropylcellulose) (HPC)
[16] = dose: 200.0 mg/kg/injection, schedule: Q04DX002 (ip), vehicle: Klucel (hydroxypropylcellulose) (HPC)
[17] = dose: 400.0 mg/kg/injection, schedule: Q04DX002 (ip), vehicle: Klucel (hydroxypropylcellulose) (HPC)
[18] = dose: 100.0 mg/kg/injection, schedule: Q01DX001 (ip), vehicle: carboxymethylcellulose (CMC)
[19] = dose: 100.0 mg/kg/injection, schedule: Q01DX001 (ip), vehicle: saline
[20] = dose: 400.0 mg/kg/injection, schedule: Q01DX001 (ip), vehicle: carboxymethylcellulose (CMC)
[21] = dose: 100.0 mg/kg/injection, schedule: Q04DX003 (ip), vehicle: saline
[22] = dose: 200.0 mg/kg/injection, schedule: Q01DX001 (ip), vehicle: carboxymethylcellulose (CMC)

## Cc1c2cc3c(cc2cc2c4cc5c(cc4cc[n+]12)OCO5)OCO3 (tested in a mixture with another compound)
dose: 5.5 mg/kg/injection, schedule: Q04DX003 (ip), vehicle: saline
  T/C: 110 % of control
[1]
  T/C: 110 % of control
dose: 8.3 mg/kg/injection, schedule: Q04DX003 (ip), vehicle: saline
  T/C: 108 % of control
[2]
  T/C: 89 % of control
dose: 12.5 mg/kg/injection, schedule: Q04DX003 (ip), vehicle: saline
  T/C: 98 % of control
dose: 18.7 mg/kg/injection, schedule: Q04DX003 (ip), vehicle: saline
  T/C: 93 % of control

## ClCCCCCCCCc1ccccc1
[3]
  T/C: 105 % of control
[4]
  T/C: 100 % of control
[5]
  T/C: 102 % of control
[6]
  T/C: 102 % of control
[7]
  T/C: 107 % of control
[8]
  T/C: 96 % of control

## O=C(O)c1cccc(CCl)c1
dose: 100.0 mg/kg/injection, schedule: Q04DX002 (ip), vehicle: saline with Tween-80
  T/C: 95 % of control

## O=C(CSc1cc(-c2ccc(Cl)cc2)s[s+]1)c1ccccc1
[9]
  T/C: 100 % of control
[10]
  T/C: 93 % of control
[11]
  T/C: 97 % of control
[12]
  T/C: 96 % of control
[13]
  T/C: 103 % of control
[14]
  T/C: 100 % of control

## O=C1Nc2ccccc2C2=C3CCCCC3=NNC12 (stereo unspecified)
[15]
  T/C: 101 % of control
[16]
  T/C: 97 % of control
[17]
  T/C: 108 % of control

## O=C(/C=C/c1ccccc1)N/N=C/c1ccccc1Cl
dose: 50.0 mg/kg/injection, schedule: Q04DX002 (ip), vehicle: Klucel (hydroxypropylcellulose) (HPC)
  T/C: 108 % of control
[15]
  T/C: 100 % of control and 116 % of control
[16]
  T/C: 111 % of control
[17]
  T/C: 101 % of control and 110 % of control

## C=CCCCCCCCC/C=C1\CCOC1=O
dose: 75.0 mg/kg/injection, schedule: Q01DX009 (ip), vehicle: saline with Tween-80
  T/C: 105 % of control
[10]
  T/C: 104 % of control
dose: 150.0 mg/kg/injection, schedule: Q01DX009 (ip), vehicle: saline with Tween-80
  T/C: 93 % of control
[12]
  T/C: 89 % of control
dose: 300.0 mg/kg/injection, schedule: Q01DX009 (ip), vehicle: saline with Tween-80
  T/C: 99 % of control
[14]
  T/C: 102 % of control

## C/C(N)=N\O
dose: 100.0 mg/kg/injection, schedule: Q04DX002 (ip), vehicle: saline
  T/C: 105 % of control
dose: 200.0 mg/kg/injection, schedule: Q04DX002 (ip), vehicle: saline
  T/C: 102 % of control
dose: 400.0 mg/kg/injection, schedule: Q04DX002 (ip), vehicle: saline
  T/C: 105 % of control

## CSc1nc(=O)[nH]nc1SCc1ccccc1
dose: 22.0 mg/kg/injection, schedule: Q01DX015 (ip), vehicle: carboxymethylcellulose (CMC)
  T/C: 95 % of control
dose: 33.0 mg/kg/injection, schedule: Q01DX015 (ip), vehicle: carboxymethylcellulose (CMC)
  T/C: 95 % of control
dose: 44.0 mg/kg/injection, schedule: Q01DX001 (ip), vehicle: carboxymethylcellulose (CMC)
  T/C: 100 % of control and 103 % of control
dose: 50.0 mg/kg/injection, schedule: Q01DX015 (ip), vehicle: carboxymethylcellulose (CMC)
  T/C: 92 % of control
dose: 66.0 mg/kg/injection, schedule: Q01DX001 (ip), vehicle: carboxymethylcellulose (CMC)
  T/C: 98 % of control and 102 % of control
dose: 75.0 mg/kg/injection, schedule: Q01DX009 (ip), vehicle: saline
  T/C: 103 % of control
dose: 75.0 mg/kg/injection, schedule: Q01DX015 (ip), vehicle: carboxymethylcellulose (CMC)
  T/C: 87 % of control
[18]
  T/C: 95 % of control and 97 % of control and 284 % of control
[19]
  T/C: 100 % of control
dose: 150.0 mg/kg/injection, schedule: Q01DX001 (ip), vehicle: carboxymethylcellulose (CMC)
  T/C: 96 % of control and 89 % of control
dose: 150.0 mg/kg/injection, schedule: Q01DX009 (ip), vehicle: saline
  T/C: 95 % of control
dose: 200.0 mg/kg/injection, schedule: Q01DX001 (ip), vehicle: saline
  T/C: 97 % of control
dose: 300.0 mg/kg/injection, schedule: Q01DX009 (ip), vehicle: saline
  T/C: 97 % of control
[20]
  T/C: 160 % of control
dose: 400.0 mg/kg/injection, schedule: Q01DX001 (ip), vehicle: saline
  T/C: 95 % of control

## O=C(/C=C/c1ccco1)c1ccc(F)cc1
dose: 75.0 mg/kg/injection, schedule: Q01DX001 (ip), vehicle: saline
  T/C: 94 % of control
dose: 150.0 mg/kg/injection, schedule: Q01DX001 (ip), vehicle: saline
  T/C: 98 % of control
dose: 300.0 mg/kg/injection, schedule: Q01DX001 (ip), vehicle: saline
  T/C: 102 % of control

## O=C(O)Cc1csc2ccccc12
dose: 100.0 mg/kg/injection, schedule: Q01DX001 (ip), vehicle: other
  T/C: 100 % of control
dose: 200.0 mg/kg/injection, schedule: Q01DX001 (ip), vehicle: other
  T/C: 97 % of control
dose: 400.0 mg/kg/injection, schedule: Q01DX001 (ip), vehicle: other
  T/C: 103 % of control

## COC(=O)C1=CNC=C(C(=O)OC)C1c1ccc(OC)cc1
[10]
  T/C: 95 % of control
[12]
  T/C: 96 % of control
[14]
  T/C: 95 % of control

## CC[N+](CC)(CC)Cc1ccccc1 (tested in a mixture with another compound)
[1]
  T/C: 97 % of control
[2]
  T/C: 103 % of control
dose: 25.0 mg/kg/injection, schedule: Q01DX001 (ip), vehicle: saline
  T/C: 96 % of control
dose: 25.0 mg/kg/injection, schedule: Q01DX009 (ip), vehicle: saline
  T/C: 95 % of control and 108 % of control
dose: 25.0 mg/kg/injection, schedule: Q04DX003 (ip), vehicle: saline
  T/C: 111 % of control and 96 % of control
dose: 50.0 mg/kg/injection, schedule: Q01DX001 (ip), vehicle: saline
  T/C: 112 % of control
dose: 50.0 mg/kg/injection, schedule: Q04DX003 (ip), vehicle: saline
  T/C: 102 % of control and 104 % of control
[19]
  T/C: 98 % of control and 106 % of control
[9]
  T/C: 92 % of control
[21]
  T/C: 88 % of control
[11]
  T/C: 96 % of control
[13]
  T/C: 92 % of control

## CCCNC(=O)Nc1cc(C(F)(F)F)ccc1Cl
[9]
  T/C: 98 % of control
[10]
  T/C: 97 % of control
[11]
  T/C: 88 % of control
[12]
  T/C: 103 % of control
[13]
  T/C: 87 % of control
[14]
  T/C: 108 % of control

## COc1ccccc1N1C(=O)CC(Sc2ccccc2N)C1=O (stereo unspecified)
[3]
  T/C: 95 % of control
[4]
  T/C: 87 % of control
[5]
  T/C: 88 % of control
[6]
  T/C: 94 % of control
[7]
  T/C: 93 % of control
[8]
  T/C: 96 % of control

## CCCCC(=O)N/N=C/c1c[nH]c2ccc(Br)cc12
[18]
  T/C: 88 % of control
[22]
  T/C: 93 % of control
[20]
  T/C: 93 % of control

## N#CCCC1CCCCC1=O (stereo unspecified)
dose: 75.0 mg/kg/injection, schedule: Q01DX001 (ip), vehicle: other
  T/C: 97 % of control
[9]
  T/C: 94 % of control
[10]
  T/C: 98 % of control
dose: 150.0 mg/kg/injection, schedule: Q01DX001 (ip), vehicle: other
  T/C: 100 % of control
[11]
  T/C: 96 % of control
[12]
  T/C: 96 % of control
dose: 300.0 mg/kg/injection, schedule: Q01DX001 (ip), vehicle: other
  T/C: 100 % of control
[14]
  T/C: 102 % of control

## CN(C(N)=O)C1CCCC1
[21]
  T/C: 96 % of control
dose: 200.0 mg/kg/injection, schedule: Q04DX003 (ip), vehicle: saline
  T/C: 91 % of control
dose: 400.0 mg/kg/injection, schedule: Q04DX003 (ip), vehicle: saline
  T/C: 96 % of control

## CCN(CC)c1ccc(N=Cc2cc(=O)n(C)c3ccccc23)cc1
[18]
  T/C: 101 % of control
[22]
  T/C: 90 % of control
[20]
  T/C: 88 % of control

## N#Cc1cc(Cl)cc(Cl)c1
[18]
  T/C: 98 % of control
[22]
  T/C: 104 % of control
[20]
  T/C: 93 % of control

## C=CCNC(=S)Nc1cccc(O)c1
dose: 100.0 mg/kg/injection, schedule: Q01DX009 (ip), vehicle: Klucel (hydroxypropylcellulose) (HPC)
  T/C: 95 % of control
dose: 200.0 mg/kg/injection, schedule: Q01DX009 (ip), vehicle: Klucel (hydroxypropylcellulose) (HPC)
  T/C: 104 % of control
dose: 400.0 mg/kg/injection, schedule: Q01DX009 (ip), vehicle: Klucel (hydroxypropylcellulose) (HPC)
  T/C: 107 % of control
